Assay results published in patent publication US4716153A, “Stable oral preparation of macrolide antibiotics and method for stabilizing the same” (priority 1982, dated 1987).
Read-outs that look alike come from different tables or passages of the source.

Assays:
[1] = Stability in Japan Pharmacopoeia 1st solution (pH 1.2) at 37° C., with or without stabilizer (TLC densitometry, 232 nm); type: physicochemical; details: for improvement of stability compared with control, 30 minutes: value at 30 minutes; for stability in 1st solution (in words): 1st solution pH 1.2, no stabilizer; for stability with tri-sodium citrate (in words): 150-300 mg of tri-sodium citrate; for stability with calcium phosphate (in words): 150-400 mg of calcium phosphate; for stability with glycine (in words): 150-900 mg of glycine; for stability with L-aspartic acid monosodium salt (in words): 200-500 mg of Asp.Na; for stability with monosodium glutamate (in words): 200-500 mg of Glu.Na; for degraded at 0.5 h: read-out: decomposites (balance), 30 minutes; for remaining at 0.5 h: read-out: residual amount after contact with 1st solution, 30 minutes; for degraded at 1 h / remaining at 1 h: 60 minutes; for stability with a larger amount of glycine (in words): larger amount of glycine (up to 900 mg)
Excerpt: The stabilizers showing pH 3-10 used in the invention may be substances having a buffering or antacid action and showing pH 3-10, preferably 5.5-6.5. These are, for example, neutral amino acids or their basic salts, basic salts of acidic amino acids, basic amino acids,basic salts of organic carboxylic acids,basic salts of polybasic organic carboxylic acids, basic salts of uronic acid or inorganic salt antacids. The neutral amino acids or basic salts thereof include glycine, alanine, aminobutyric acid, proline, leucine, isoleucine, methionine, threonine, serine, valine, or their aluminium salts, for example aluminium glycinate. Among these, glycine, alanine and aluminium glycinate, both of which show pH 5.5-6.5, are preferable. The basic salts of acidic amino acid include monobasic salts such as a monosodium, monopotassium or magnesium salt of glutaminic or aspartic acid. Among these monobasic salts, monosodium glutamate or monosodium aspartate is preferable. The basic amino acids include arginine, glutamine, asparagine, citrulin, tryptophane and histidine. Especially, histidine is preferable. The basic salts of monobasic organic carboxylic acid include basic salts such as sodium, potassium, magnesium or aluminium salts of saturated monobasic organic carboxylic acids such as acetic acid and propionic acid, of unsaturated monobasic organic acids such as acrylic acid, crotonic acid and vinylacetic acid, and of other monobasic organic acids such as lactic acid, pyruvic acid, glyceric acid and acetoacetic acid. The basic salts of polybasic organic carboxylic acid include mono-, di- or tri-sodium, potassium, magnesium, calcium or aluminium salts of saturated polybasic organic carboxylic acids such as oxalic acid, malonic acid, succinic acid, glutaric acid, adipic acid and pimelic acid, of unsaturated polybasic organic carboxylic acids such as maleic acid and fumaric acid, and of other polybasic organic carboxylic acids such as meso-oxalic acid, malic acid, oxalacetic acid and citric acid. Among these, trisodium citrate is preferable. The basic salts of uric acids include sodium salts of glucuronic acid, galacturonic acid or their polymers such as alginic acid or peptic acid and dihydroxyaluminium aminoacetate sodium alginate. The inorganic salt antacids include calcium hydrogenphosphate, disodium hydrogenphosphate, dipotassium hydrogenphosphate, magnesium hydrogenphosphate, calcium carbonate, sodium carbonate, potassium carbonate, sodium hydrogen carbonate, aluminium carbonate, magnesium carbonate, potassium metasilicate, magnesium aluminate metasilicate, sodium metasilicate, synthetic aluminium silicate, magnesium silicate, aluminium silicate, magnesium aluminate silicate, magnesium-bismuth aluminate silicate, magnesium oxide, alumina-magnesium hydroxide, magnesium peroxide, magnesium hydroxide, aluminium hydroxide, synthetic hydrotarphite, aluminium phosphate and others. Especially, calcium phosphate and magnesium phosphate are preferable. Each of these stabilizers may be used alone or in the form of a mixture. […] A method for stabilization of 16-membered ring macrolide antibiotics of the present invention will be described in detail. The afore-mentioned various 16-membered ring macrolide antibiotics, for example 9-hydroxy 16-membered ring macrolides such as midecamycin, 3"-propionylleucomycin A5 and josamycin and 9-acyloxy 16-membered ring macrolides such as 9,3"-diacetylmidecamycin and 9-propionyljosamycin show extremely poor residual rates when added to an acidic solution of the Japanese Pharmacopoeia lst liquid (pH 1.2) and allowed to stand. That is, the 9hydroxy 16-membered ring maclorides decompose in a short time to by-produce their iso, demycarosyl and/or isodemycarosyl forms. The 9-acyloxy 16-membered ring macrolides decompose, too, to by-produce their 9-deacyl, 9-deacyl-iso, demycarosyl, 9-deacyl-demycarosyl or 9-deacyl-iso-demycarosyl forms. […]

[2] = Elution rate in aqueous solutions of various pH and physiological saline solution; type: physicochemical; details: for elution rate, pH 1.2, 2 and 3: initial pH 1.2, 2 and 3; for elution rate, pH 1.2, 2 and 3 / elution rate, pH 4 and 5 / elution rate, physiological saline solution: 37° C.; for elution rate, pH 4 and 5: initial pH 4 and 5
Procedure: After 40 ml of Japan Pharmacopoeia 1st solution (pH 1.2) was placed in a vessel whose temperature was kept constant in a thermostat at 37° C., 200 mg of TMS-19-Q was added and the mixture was stirred by a magnetic stirrer. […] Then, Japan Pharmacopoeia 2nd solution were mixed with the 1st solution, and by using aqueous solutions whose pH values were adjusted to be 2, 3, 4 and 5 and a physiological saline solution, respectively, elution rate of each thereof was measured.
To 40 ml of Japan Pharmacopoeia 1st solution (pH 1.2), 120 ml of water was added, and after the solution was kept in a constant temperature bath controlled at 37° C., 200 mg of midecamycin was added, and the mixture was stirred by a magnetic stirrer. Then, 5 ml aliquots of the solution were sampled in a lapse of time (at 5 minutes, 15 minutes and 30 minutes), and absorbances were measured (wavelength: 232 nm) and elution rate were calculated. Then, Japan Pharmacopoeia 1st solution and Japan Pharmacopoeia 2nd solution were mixed to prepare aqueous solutions whose pH values were adjusted to be 2, 3, 4 and 5, respectively. By using these solutions and physiological saline solution, the elution rates were calculated following the same procedures as those indicated above.
By following the same procedures and under the same conditions as those of Example 31, elution rates of 9-propionyljosamycin were measured.
By following the same procedures and under the same conditions as those of Example 31, elution rates of josamycin were measured.
In addition to the conditions of Example 31, Japan Pharmacopoeia 1st solution and Japan Parmacopoeia 2nd solution were mixed to prepare an aqueous solution having pH of 2.5, and following the same procedures as those of Example 31, elution rates of 9,3"-diacetylmidecamycin were measured.

[3] = 1st solution pH 1.2, 37° C., 30 minutes, no stabilizer
[4] = jp 1st solution, pH 1.2, 1st solution pH 1.2, 37° C., 30 minutes, no stabilizer
[5] = solutions whose pH is equal to or less than 4.37
[6] = jp 1st solution, 1st solution pH 1.2, 37° C., 30 minutes, no stabilizer
[7] = jp 1st solution, 1st solution pH 1.2, 37° C., no stabilizer, read-out: decomposites (balance), 60 minutes
[8] = jp 1st solution, 1st solution pH 1.2, 37° C., no stabilizer, read-out: residual amount after contact with 1st solution, 60 minutes

SMILES	improvement of stability compared with control, 30 minutes ([1]; 150 mg of glycine)	stability in 1st solution (in words) [1]	stability with tri-sodium citrate (in words) ([1]; 1st solution)	stability with calcium phosphate (in words) ([1]; 1st solution)	stability with glycine (in words) ([1]; 1st solution)	stability with L-aspartic acid monosodium salt (in words) ([1]; 1st solution)	stability with monosodium glutamate (in words) ([1]; 1st solution)	stability with a larger amount of glycine (in words) [1]	elution rate, pH 1.2, 2 and 3 ([2]; after 15-minute stirring)	elution rate, pH 4 and 5 ([2]; after 15-minute stirring)	elution rate in pH 1.2-3 acidic aqueous solution (summary) ([2]; general description)	elution rate in pH 4-5 weak acidic aqueous solution (summary) ([2]; general description)	elution rate, physiological saline solution ([2]; after 15-minute stirring)	elution rate in physiological saline solution (summary) ([2]; general description)	time within which elution was nearly completed [2, 5]	degraded at 0.5 h [1, 6]	remaining at 0.5 h [1, 6]	degraded at 1 h [1, 7]	remaining at 1 h [1, 8]	further results
CCC(=O)OC1CC(=O)OC(C)C/C=C/C=C/C(O)C(C)CC(CC=O)C(OC2OC(C)C(OC3CC(C)(O)C(OC(=O)CC)C(C)O3)C(N(C)C)C2O)C1OC (stereo not drawn) [midecamycin]	50%	extremely unstable	extremely well stabilized	extremely well stabilized	stabilized well	very much enhanced	very much enhanced	hardly decomposed	≥ 95%	45-60%	more than 95%	less than 50%	15%	less than 15%	≤ 15 min					decomposites (balance), 30 minutes [1, 3]: 42.6%; residual amount after contact with 1st solution, 30 minutes [1, 3]: 57.4%; degraded at 0.5 h [1, 4]: 55%; remaining at 0.5 h [1, 4]: 45%; degraded at 1 h ([1]; jp 1st solution, pH 1.2, 1st solution pH 1.2, 37° C., no stabilizer, read-out: decomposites (balance), 60 minutes): 65%; remaining at 1 h ([1]; jp 1st solution, pH 1.2, 1st solution pH 1.2, 37° C., no stabilizer, read-out: residual amount after contact with 1st solution, 60 minutes): 35%
CO[C@@H]1[C@@H](O[C@@H]2O[C@H](C)[C@@H](O[C@H]3C[C@@](C)(O)[C@@H](OC(=O)CC(C)C)[C@H](C)O3)[C@H](N(C)C)[C@H]2O)[C@@H](CC=O)C[C@@H](C)[C@@H](O)/C=C/C=C/C[C@@H](C)OC(=O)C[C@H]1OC(C)=O [josamycin]	30%								≥ 95%	50-60%	more than 95%	less than 50%	15%	less than 15%						degraded at 1 h ([1]; jp 1st solution, pH 1.2, decomposites (balance)): 53.3%; remaining at 1 h ([1]; jp 1st solution, pH 1.2, residual amount after contact with 1st solution): 46.7%; time within which elution was nearly completed ([2]; solutions whose pH is equal to or less than 4.35): ≤ 15 min
CCC(=O)O[C@H]1/C=C/C=C/C[C@@H](C)OC(=O)C[C@@H](OC(C)=O)[C@H](OC)[C@@H](O[C@@H]2O[C@H](C)[C@@H](O[C@H]3C[C@@](C)(O)[C@@H](OC(=O)CC(C)C)[C@H](C)O3)[C@H](N(C)C)[C@H]2O)[C@@H](CC=O)C[C@H]1C [9-propionyljosamycin]		extremely unstable	very much enhanced	extremely enhanced	stabilized well	very much enhanced	very much enhanced	hardly decomposed	≥ 95%	45-55%	more than 95%	less than 50%	10%	less than 15%	≤ 15 min	55.8%	44.2%	84.1%	15.9%	improvement of stability compared with control, 60 minutes ([1]; 150 mg of glycine, value at 60 minutes): improved by four times; degraded at 25 min ([1]; jp 1st solution, pH 1.2, 1st solution, about 25 minutes, read-out: decomposition in contact with 1st solution): 50%
CCC(=O)OC1CC(=O)OC(C)C/C=C/C=C/C(OC(C)=O)C(C)CC(CC=O)C(OC2OC(C)C(OC3CC(C)(OC(C)=O)C(OC(=O)CC)C(C)O3)C(N(C)C)C2O)C1OC (stereo not drawn) [9,3"-diacetylmidecamycin]	60%	extremely unstable	very much enhanced	extremely enhanced	stabilized well	very much enhanced	very much enhanced	hardly decomposed						less than 15%		50.6%	49.4%	75.5%	24.5%	elution rate, pH 1.2, 2 and 2.5 ([2]; initial pH 1.2, 2 and 2.5, after 15-minute stirring): ≥ 95%; elution rate, pH 3 ([2]; initial pH 3, after 15-minute stirring): 50%; elution rate, pH 4 and 5 and physiological saline solution ([2]; initial pH 4 and 5 and physiological saline, after 15-minute stirring): 5-10%; elution rate in pH 1.2-2.5 acidic aqueous solution (summary) ([2]; pH 1.2-2.5, general description): more than 95%; time within which elution was nearly completed ([2]; solutions whose final pH is equal to or less than 3.77): ≤ 15 min
